Measurements taken from article PMC12396409, “Screening and hit evaluation of a microbial metabolite library against the pathogenic Plasmodium falciparum and Toxoplasma gondii parasites” (International Journal for Parasitology: Drugs and Drug …, 2025).
Where two headings read alike, the source gives them in different places.

Columns and labels:
[1] = test system: P. falciparum 3D7 parasites; assay: P. falciparum growth inhibition assay, 1-cycle (72 h treatment), SYBR DNA staining (library screen at 2 μg/mL and dose-response); assay type: cell-based, Plasmodium falciparum; conditions: for activity at 2 µg/mL: Plasmodium falciparum
[2] = test system: T. gondii RH strain (RH-Tub-eYFP) tachyzoites; assay: microbe, parasite or virus in culture; assay type: cell-based, Toxoplasma gondii; conditions: 72 h; for percent parasite growth at 2 µg/mL: Toxoplasma gondii
[3] = test system: P. falciparum 3D7 parasites; assay: P. falciparum growth inhibition assay, 2-cycle (120 h treatment), delayed-death screen and dose-response; assay type: cell-based, Plasmodium falciparum; conditions: for activity at 2 µg/mL: Plasmodium falciparum
[4] = T. gondii, screen at 2 μg/mL, replicate 1, read-out: Tg_72h_%Growth_Rep1
[5] = T. gondii, screen at 2 μg/mL, replicate 2, read-out: Tg_72h_%Growth_Rep2
[6] = library screen at 2 μg/mL, 72 h, % growth, replicate 1
[7] = library screen at 2 μg/mL, 72 h, % growth, replicate 2
[8] = library screen at 2 μg/mL, % growth, replicate 1
[9] = library screen at 2 μg/mL, % growth, replicate 2
[10] = library screen at 2 μg/mL, 120 h, % growth, replicate 1
[11] = library screen at 2 μg/mL, 120 h, % growth, replicate 2

Compound: C[C@@H]1Cc2c(Cl)cc(C(=O)N[C@@H](Cc3ccccc3)C(=O)O)c(O)c2C(=O)O1 [BIA-O1195]
- Pf_72h_%Growth_Rep1 ([1]; P. falciparum 3D7, 72 h, parasite screen at 2 μg/mL, % growth, replicate 1): 84.32%
- Pf_72h_%Growth_Rep2 ([1]; P. falciparum 3D7, 72 h, parasite screen at 2 μg/mL, % growth, replicate 2): 95.25%
- Tg_72h_%Growth_Rep1 ([2]; T. gondii, parasite screen at 2 μg/mL, % growth, replicate 1): 120.41%
- Tg_72h_%Growth_Rep2 ([2]; T. gondii, parasite screen at 2 μg/mL, % growth, replicate 2): 95.09%
- Pf_120h_%Growth_Rep1 ([3]; P. falciparum 3D7, 120 h, parasite screen at 2 μg/mL, % growth, replicate 1): 103.82%
- Pf_120h_%Growth_Rep2 ([3]; P. falciparum 3D7, 120 h, parasite screen at 2 μg/mL, % growth, replicate 2): 136.40%

Compound: CCCCCCCCCCCCCC(=O)N[C@H]1CCOC1=O [Tetradecanoyl-L-homoserine lactone]
- Pf_72h_%Growth_Rep1 ([1]; P. falciparum, 72 h, screen at 2 μg/mL, replicate 1): 70.00%
- Pf_72h_%Growth_Rep2 ([1]; P. falciparum, 72 h, screen at 2 μg/mL, replicate 2): 83.15%
- Tg_72h_%Growth_Rep1 ([2]; T. gondii, screen at 2 μg/mL, replicate 1): 91.68%
- Tg_72h_%Growth_Rep2 ([2]; T. gondii, screen at 2 μg/mL, replicate 2): 91.92%
- Pf_120h_%Growth_Rep1 ([3]; P. falciparum, 120 h, screen at 2 μg/mL, replicate 1): 140.07%
- Pf_120h_%Growth_Rep2 ([3]; P. falciparum, 120 h, screen at 2 μg/mL, replicate 2): 68.40%

Compound: Nc1ncnc2c1ncn2[C@@H]1O[C@H](CO)C[C@H]1O [Cordycepin]
- activity at 2 µg/mL ([1]; 3D7, P. falciparum, 72 h, screen at 2 μg/mL, replicate 1, read-out: Pf_72h_%Growth_Rep1): 22.1%
- activity at 2 µg/mL ([1]; 3D7, P. falciparum, 72 h, screen at 2 μg/mL, replicate 2, read-out: Pf_72h_%Growth_Rep2): 11.8%
- percent parasite growth at 2 µg/mL [2, 4]: 80%
- percent parasite growth at 2 µg/mL [2, 5]: 99.7%
- activity at 2 µg/mL ([3]; 3D7, P. falciparum, 120 h, screen at 2 μg/mL, replicate 1, read-out: Pf_120h_%Growth_Rep1): 24.5%
- activity at 2 µg/mL ([3]; 3D7, P. falciparum, 120 h, screen at 2 μg/mL, replicate 2, read-out: Pf_120h_%Growth_Rep2): 12.4%

Compound: C=C(C)[C@@H]1CC[C@]2(C(=O)OC)CC[C@]3(C)[C@H](CC[C@@H]4[C@@]5(C)CC[C@H](O)C(C)(C)[C@@H]5CC[C@]43C)[C@@H]12 [Betulinate, Methyl]
- Pf_72h_%Growth_Rep1 [1, 6]: 96.31%
- Pf_72h_%Growth_Rep2 [1, 7]: 86.01%
- Tg_72h_%Growth_Rep1 [2, 8]: 84.95%
- Tg_72h_%Growth_Rep2 [2, 9]: 84.36%
- Pf_120h_%Growth_Rep1 [3, 10]: 150.46%
- Pf_120h_%Growth_Rep2 [3, 11]: 92.78%

Compound: COc1cc(O)c2c(c1C)C(C)C(O)(CO)OC2=O (stereo not drawn) [Banksialactone A]
- Pf_72h_%Growth_Rep1 [1, 6]: 70.20%
- Pf_72h_%Growth_Rep2 [1, 7]: 86.53%
- Tg_72h_%Growth_Rep1 [2, 8]: 101.56%
- Tg_72h_%Growth_Rep2 [2, 9]: 97.07%
- Pf_120h_%Growth_Rep1 [3, 10]: 148.50%
- Pf_120h_%Growth_Rep2 [3, 11]: 82.39%

Compound: CO[C@H]1[C@@H](O)[C@@H](C)O[C@H](O[C@H]2[C@H](Oc3cccc4c(O)c5c(=O)oc6ccc(C)c7c(=O)oc(c34)c5c67)O[C@H](C)[C@H](O)[C@@H]2O)[C@@H]1O [Chartreusin]
- activity at 2 µg/mL ([1]; 3D7, 72 h, P. falciparum, 72 h, screen at 2 μg/mL, replicate 1, read-out: Pf_72h_%Growth_Rep1): 101%
- activity at 2 µg/mL ([1]; 3D7, 72 h, P. falciparum, 72 h, screen at 2 μg/mL, replicate 2, read-out: Pf_72h_%Growth_Rep2): 88.7%
- percent parasite growth at 2 µg/mL [2, 4]: 85.7%
- percent parasite growth at 2 µg/mL [2, 5]: 97.4%
- activity at 2 µg/mL ([3]; 3D7, 120 h, P. falciparum, 120 h, screen at 2 μg/mL, replicate 1, read-out: Pf_120h_%Growth_Rep1): 144%
- activity at 2 µg/mL ([3]; 3D7, 120 h, P. falciparum, 120 h, screen at 2 μg/mL, replicate 2, read-out: Pf_120h_%Growth_Rep2): 96.8%

Compound: C[C@@H]1C=C2C(=O)O[C@@H]3CC[C@H](C1)[C@]23O [Galiellalactone]
- Pf_72h_%Growth_Rep1 [1, 6]: 88.40%
- Pf_72h_%Growth_Rep2 [1, 7]: 106.75%
- Tg_72h_%Growth_Rep1 [2, 8]: 132.28%
- Tg_72h_%Growth_Rep2 [2, 9]: 99.14%
- Pf_120h_%Growth_Rep1 [3, 10]: 91.95%
- Pf_120h_%Growth_Rep2 [3, 11]: 97.41%

Compound: O=C1C=C2C=C[C@@H]3C[C@@]2(O1)[C@H]1CCCCN31 [Securinine]
- activity at 2 µg/mL ([1]; 3D7, 72 h, P. falciparum, 72 h, parasite screen 2 μg/mL, % growth, replicate 1, read-out: Pf_72h_%Growth_Rep1): 19.3%
- activity at 2 µg/mL ([1]; 3D7, 72 h, P. falciparum, 72 h, parasite screen 2 μg/mL, % growth, replicate 2, read-out: Pf_72h_%Growth_Rep2): 10.7%
- percent parasite growth at 2 µg/mL ([2]; T. gondii, parasite screen 2 μg/mL, % growth, replicate 1, read-out: Tg_72h_%Growth_Rep1): 46.1%
- percent parasite growth at 2 µg/mL ([2]; T. gondii, parasite screen 2 μg/mL, % growth, replicate 2, read-out: Tg_72h_%Growth_Rep2): 60.2%
- activity at 2 µg/mL ([3]; 3D7, 120 h, P. falciparum, 120 h, parasite screen 2 μg/mL, % growth, replicate 1, read-out: Pf_120h_%Growth_Rep1): 14.2%
- activity at 2 µg/mL ([3]; 3D7, 120 h, P. falciparum, 120 h, parasite screen 2 μg/mL, % growth, replicate 2, read-out: Pf_120h_%Growth_Rep2): 10.7%
